The structures appear in SMILES notation. Like-named read-outs stand apart in the source and are kept apart here.

One data set relates to LOVO. Description: MTT assay, LOVO. The format is cell-based. The following applies: 72 h, read-out: IC50 ± SD Colon LOVO.
The test system of the next data set is A549. Briefly: MTT assay, A549. The format is cell-based. The following applies: read-out: IC50 ± SD Lung A549. A general note: Tetrazolium dyes change colour on reduction, which living cells bring about.
Another data set has as its system HeLa. Briefly: MTT assay, HeLa. The settings on record: 72 h, read-out: IC50 ± SD Cervical HeLa. The format is cell-based. How it is done:
Table S1. The antiproliferative efficacy of the DML1-DML12 compounds on the proliferation of cervical cancer cell line.
Figure S1. The efficacy of DML6 in HeLa cancer cells. The cell-viability curve produced by HeLa cells treated with
vehicle (0 μM), 5 or 10 μM of DML6 after 72 h of incubation. Cell survival was determined using the MTT assay. The
IC50 values are represented as the means ± SD of three independent experiments performed in triplicate. […]

Another data set deals with HEK293. Briefly: MTT assay, HEK293. The format is cell-based, human. The following applies: read-out: IC50 ± SD Kidney HEK293.
In a further data set the test system is DU145. Briefly: MTT assay, DU145. The settings on record: Homo sapiens, DU-145, 72 h, read-out: IC50 ± SD Prostate DU145. The format is cell-based.
The next data set deals with MDA-MB-231. Briefly: MTT assay, MDA-MB-231. The following applies: read-out: IC50 ± SD Breast MDA-MB-231. The format is cell-based.
Another data set relates to OV2008. Briefly: MTT assay, OV2008. The format is cell-based. The settings on record: 72 h, read-out: IC50 ± SD Cervical OV2008.
In a further data set the test system is cancer cell lines. Briefly: MTT assay, panel of cancer cell lines. The format is cell-based.

Procedure for A549: (§1) The concentration of the tested compounds that produced a 50% inhibition of cell growth (IC50) was determined.
(§2) A panel of cancer cell lines, including cervical (OV2008 and HeLa), breast (MDA-MB-231), lung (A549) and colon (LOVO), prostate (DU145), human embryonic kidney cells (HEK293), human colon fibroblast cells (CRL1459), and Chinese hamster ovary cells (CHO), were grown as adherent monolayers in flasks containing Dulbecco’s modified Eagle medium (DMEM), supplemented with 10% fetal bovine serum (FBS) and 1% penicillin and streptomycin, in a humidified incubator with 5% CO2 at 37 °C.
(§3) The cells were seeded evenly (180 μL/well) in 96-well plates, at a density of 3000–5000 cells/well and incubated with serial dilutions of the compounds ranging from 0.1 to 100 μM. The MTT dye (4 mg/ml) was added after 72 h of incubation and incubated with the cells for an additional 4 h at 37 °C, allowing the viable cells to biotransform the yellow-colored MTT into dark-blue formazan crystals. Following incubation, the medium was aspirated, and the formazan crystals were dissolved by adding 100 μL of DMSO to each well. Cytation™ 5 and Cytation™ 7 multi-mode detector (Bio Tek Instruments, Winooski, VT, USA) was used to determine the absorbance readings at a wavelength of 570 nm. The IC50 values were determined based on 3 separate experiments, with each experiment carried out in triplicate.
Procedure for DU145: as §1, §2, §3
Procedure for HEK293: as §1, §2, §3
Procedure for LOVO: as §1, §2, §3
Procedure for MDA-MB-231: as §1, §2, §3
Procedure for OV2008: as §1, §2
(§4) The cells were seeded evenly (180 μL/well) in 96-well plates, at a density of 3000–5000 cells/well and incubated with serial dilutions of the compounds ranging from 0.1 to 100 μM. The MTT dye (4 mg/ml) was added after 72 h of incubation and incubated with the cells for an additional 4 h at 37 °C, allowing the viable cells to biotransform the yellow-colored MTT into dark-blue formazan crystals. Following incubation, the medium was aspirated, and the formazan crystals were dissolved by adding 100 μL of DMSO to each well. Cytation™ 5 and Cytation™ 7 multi-mode detector (Bio Tek Instruments, Winooski, VT, USA) was used to determine the absorbance readings at a wavelength of 570 nm. The IC50 values were determined based on 3 separate experiments, with each experiment carried out in triplicate. The selectivity of the compounds was determined by comparing their IC50 values in cervical cancer compared to the normal epithelial cell lines, HEK293, CHO, and CRL1459.
Procedure for cancer cell lines: as §1, §2, §4

Take `CN(C)c1ccc(/C=C/C(=O)c2ccccn2)cc1` [DML1, (E)-3-[4-(dimethylamino)phenyl]-1-(pyridin-2-yl)prop-2-en-1-one]: the melting point stood at 126 °C. Further, the half-inhibitory concentration (IC50) in the data set with LOVO (Homo sapiens, LoVo) was above 100 µM. The IC50 in the data set with A549 (Homo sapiens, A549, 72 h) is above 100 µM. In addition, the IC50 with HeLa was 70.7 ± 2.19 µM. Moreover, the IC50 in the data set on HeLa (Homo sapiens, HeLa) was above 70 µM. For the same compound, the IC50 with HEK293 (Homo sapiens, HEK293, 72 h) was above 100 µM. Besides, the IC50 in the data set with DU145 was above 100 µM. Moreover, the IC50 in the data set on MDA-MB-231 (Homo sapiens, MDA-MB-231, 72 h) is above 100 µM. In addition, the IC50 with OV2008 was above 100 µM.

Regarding `CCN(CC)c1ccc(/C=C/C(=O)c2ccccn2)cc1` [DML2, (E)-3-[4-(diethylamino)phenyl]-1-(pyridin-2-yl)prop-2-en-1-one], the melting point was determined as 142 °C. For the same compound, in the data set on LOVO (Homo sapiens, LoVo), the IC50 was above 100 µM. For the same compound, the IC50 in the data set with A549 (Homo sapiens, A549, 72 h) was above 100 µM. The 50% inhibitory concentration (IC50) with HeLa (Homo sapiens, HeLa) is above 100 µM. Also, the IC50 in the data set with HEK293 (Homo sapiens, HEK293, 72 h) was above 100 µM. The IC50 in the data set on DU145 was above 100 µM. Further, the IC50 in the data set with MDA-MB-231 (Homo sapiens, MDA-MB-231, 72 h) is above 100 µM. For the same compound, the IC50 with OV2008 was above 100 µM.

Regarding `COc1ccc(C(=O)/C=C/c2ccc(N(C)C)cc2)cc1` [DML3, (E)-3-[4-(dimethylamino)phenyl]-1-(4-methoxyphenyl)prop-2-en-1-one], the IC50 with LOVO (Homo sapiens, LoVo) is above 100 µM; with A549 (Homo sapiens, A549, 72 h), above 100 µM; with HeLa (Homo sapiens, HeLa), above 100 µM; in the data set with HEK293 (Homo sapiens, HEK293, 72 h), above 100 µM; in the data set with DU145 it was above 100 µM; in the data set with MDA-MB-231 (Homo sapiens, MDA-MB-231, 72 h), above 100 µM. Besides, the IC50 in the data set on OV2008 was above 100 µM.

In turn, `COc1ccc(C(=O)/C=C/c2ccc(N(C)C)cc2)cc1OC` [DML4, (E)-1-[3,4-dimethoxyphenyl]-3-(4-(dimethylamino)phenyl)prop-2-en-1-one] returned a melting point of 86 °C. Besides, the IC50 in the data set with LOVO was 45 ± 22.6 µM. The IC50 in the data set on LOVO (Homo sapiens, LoVo) is 66.3 ± 4.6 µM. Further, the IC50 in the data set with A549 (72 h) came to 66.3 ± 4.6 µM. In the data set on A549 (Homo sapiens, A549, 72 h), the IC50 turned out to be 45 ± 22.6 µM. The IC50 with HeLa (Homo sapiens, HeLa) came to 39.5 ± 11.4 µM. Also, in the data set on HEK293 (72 h), the IC50 turned out to be 68.5 ± 2.1 µM. Besides, the IC50 in the data set on HEK293 (Homo sapiens, HEK293, 72 h) was above 65 µM. Also, the “anti-proliferative efficacy in a wide range of cancer cell lines, compared to normal cells” value in the data set with cancer cell lines is reported as “moderate to good anti-proliferative efficacy”. Moreover, in the data set on DU145, the IC50 stood at 22.5 ± 4.9 µM. In addition, the IC50 with MDA-MB-231 (72 h) was determined as 26.2 ± 23.9 µM. Also, the IC50 in the data set with MDA-MB-231 (Homo sapiens, MDA-MB-231, 72 h) worked out at 26.7 ± 23.9 µM. Moreover, in the data set on OV2008, the IC50 is 13.8 ± 7 µM.

Turning to `CN(C)c1ccc(C2=NN(c3ccccc3)C(c3ccccn3)C2)cc1` (stereo not shown) [DML7, N,N-dimethyl-4-[1-phenyl-5-(pyridin-2-yl)-4,5-dihydro-1H-pyrazol-3-yl]aniline], the melting point was 179 °C. In the data set with LOVO (Homo sapiens, LoVo), the IC50 is above 100 µM. The IC50 with A549 (Homo sapiens, A549, 72 h) is above 100 µM. Further, in the data set on HeLa (Homo sapiens, HeLa), the IC50 is above 100 µM. Moreover, the IC50 with HEK293 (Homo sapiens, HEK293, 72 h) is above 100 µM. In addition, in the data set on DU145, the IC50 was above 100 µM. Also, the IC50 with MDA-MB-231 (Homo sapiens, MDA-MB-231, 72 h) is above 100 µM. Further, in the data set on OV2008, the IC50 was above 100 µM.

The compound `CCN(CC)c1ccc(C2=NN(c3ccccc3)C(c3ccccn3)C2)cc1` (stereo not shown) [DML8, N,N-diethyl-4-[1-phenyl-5-(pyridin-2-yl)-4,5-dihydro-1H-pyrazol-3-yl]aniline] registered a melting point of 188 °C. In addition, in the data set with LOVO (Homo sapiens, LoVo), the IC50 was above 100 µM. Moreover, the IC50 in the data set on A549 (Homo sapiens, A549, 72 h) is above 100 µM. Also, the half-inhibitory concentration (IC50) in the data set with HeLa (Homo sapiens, HeLa) was above 100 µM. In addition, in the data set with HEK293 (Homo sapiens, HEK293, 72 h), the IC50 is above 100 µM. In addition, the IC50 with DU145 is above 100 µM. The IC50 in the data set on MDA-MB-231 (Homo sapiens, MDA-MB-231, 72 h) is above 100 µM. The IC50 with OV2008 is above 100 µM.

Take `COc1ccc(C2CC(c3ccc(N(C)C)cc3)=NN2c2ccccc2)cc1` (stereo not shown) [DML9, 4-(5-[4-methoxyphenyl]-1-phenyl-4,5-dihydro-1H-pyrazol-3-yl)-N,N-dimethylaniline]: the melting point amounted to 147 °C. In the data set on LOVO (Homo sapiens, LoVo), the IC50 is above 100 µM. In the data set on A549 (Homo sapiens, A549, 72 h), the IC50 is above 100 µM. Also, the IC50 in the data set with HeLa (Homo sapiens, HeLa) is above 100 µM. The IC50 in the data set on HEK293 (Homo sapiens, HEK293, 72 h) was above 100 µM. Also, the IC50 in the data set with DU145 was above 100 µM. Also, the IC50 in the data set on MDA-MB-231 (Homo sapiens, MDA-MB-231, 72 h) is above 100 µM. The IC50 with OV2008 is above 100 µM.

`COc1ccc(C2CC(c3ccc(N(C)C)cc3)=NN2c2ccccc2)cc1OC` (stereo not shown) [DML10, 4-(5-(3,4-dimethoxyphenyl)-1-phenyl-4,5-dihydro-1H-pyrazol-3-yl)-N,N-dimethylaniline]: the melting point was determined as 134 °C. For the same compound, the IC50 in the data set on LOVO (Homo sapiens, LoVo) is above 100 µM. The IC50 with A549 (Homo sapiens, A549, 72 h) was above 100 µM. The IC50 with HeLa (Homo sapiens, HeLa) is above 100 µM. Further, the IC50 with HEK293 (Homo sapiens, HEK293, 72 h) was above 100 µM. Also, the IC50 in the data set with DU145 is above 100 µM. For the same compound, the IC50 with MDA-MB-231 (Homo sapiens, MDA-MB-231, 72 h) was above 100 µM. In addition, in the data set on OV2008, the IC50 is above 100 µM.

For `CCN(CC)c1ccc(C2=NN(c3ccccc3)C(c3ccc(OC)cc3)C2)cc1` (stereo not shown) [DML11, N,N-diethyl-4-(5-(4-methoxyphenyl)-1-phenyl-4,5-dihydro-1H-pyrazol-3-yl)aniline], the melting point was 121 °C. In addition, in the data set with LOVO (Homo sapiens, LoVo), the IC50 was above 100 µM. The IC50 in the data set on A549 (Homo sapiens, A549, 72 h) was above 100 µM. The IC50 in the data set on HeLa (Homo sapiens, HeLa) is above 100 µM. Besides, the 50% inhibitory concentration (IC50) in the data set with HEK293 (Homo sapiens, HEK293, 72 h) is above 100 µM. For the same compound, the IC50 with DU145 was above 100 µM. Besides, the IC50 in the data set with MDA-MB-231 (Homo sapiens, MDA-MB-231, 72 h) is above 100 µM. Also, the IC50 in the data set with OV2008 is above 100 µM.

In turn, `CN(C)c1ccc(C2=NN(c3ccccc3)C(c3ccc(Cl)cc3Cl)C2)cc1` (stereo not shown) [DML12, 4-(5-(2,4-dichlorophenyl)-1-phenyl-4,5-dihydro-1H-pyrazol-3-yl)-N,N-dimethylaniline] gave a melting point of 124 °C. Besides, the IC50 with LOVO (Homo sapiens, LoVo) is above 100 µM. The IC50 in the data set on A549 (Homo sapiens, A549, 72 h) is above 100 µM. Further, the IC50 in the data set with HeLa (Homo sapiens, HeLa) was above 100 µM. The 50% inhibitory concentration (IC50) in the data set with HEK293 (Homo sapiens, HEK293, 72 h) was above 100 µM. Besides, in the data set on DU145, the IC50 was above 100 µM. The IC50 with MDA-MB-231 (Homo sapiens, MDA-MB-231, 72 h) was above 100 µM. The IC50 with OV2008 was above 100 µM.

As usually defined, the IC50 is the concentration at which inhibition is half-maximal. The term melting point denotes the temperature, or range, at which the solid turns liquid.

The values above are taken from article PMC8306139, “A Novel Dialkylamino-Functionalized Chalcone, DML6, Inhibits Cervical Cancer Cell Proliferation, In Vitro, via Induction of Oxidative Stress, Intrinsic Apoptosis and Mitotic Catastrophe” (Molecules, 2021).
